Measurements published in ChEMBL document CHEMBL1148924, “Marine sesquiterpenoids that inhibit the lyase activity of DNA polymerase beta” (J Nat Prod, 2004).
Activity calls are given as the source filed them. The rule behind the calls is not given here.

Key:
[1] = test system: A2780; assay: Cytotoxicity against human A2780 cells; type: functional, cell-based
[2] = target: T1, M-phase inducer phosphatase 2 (Homo sapiens) (UniProt P30305); assay: (§1) Inhibition of GST-fused human recombinant Cdc25B2 (275-539) catalytic domain
T1 sequence (whole entry): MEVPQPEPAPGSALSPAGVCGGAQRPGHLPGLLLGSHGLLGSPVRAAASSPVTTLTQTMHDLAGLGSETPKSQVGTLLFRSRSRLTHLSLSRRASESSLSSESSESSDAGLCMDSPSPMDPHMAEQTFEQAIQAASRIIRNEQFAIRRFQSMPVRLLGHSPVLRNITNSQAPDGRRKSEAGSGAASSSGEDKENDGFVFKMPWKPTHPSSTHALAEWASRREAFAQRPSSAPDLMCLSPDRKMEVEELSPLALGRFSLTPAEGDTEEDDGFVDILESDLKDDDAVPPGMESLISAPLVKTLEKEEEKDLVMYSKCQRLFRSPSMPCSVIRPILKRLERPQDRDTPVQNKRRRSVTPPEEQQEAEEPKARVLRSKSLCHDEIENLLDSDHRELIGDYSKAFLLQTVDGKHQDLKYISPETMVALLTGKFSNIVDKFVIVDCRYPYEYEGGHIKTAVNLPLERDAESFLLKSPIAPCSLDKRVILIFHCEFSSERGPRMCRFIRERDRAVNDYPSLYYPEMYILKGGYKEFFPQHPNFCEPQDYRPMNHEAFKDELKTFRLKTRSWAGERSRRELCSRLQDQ

[3] = target: DNA polymerase beta (Homo sapiens, UniProt P06746); assay: Inhibition of DNA polymerase beta lyase activity
[4] = target: T2, M-phase inducer phosphatase 2 (Homo sapiens, UniProt P30305); assay: as §1
T2 sequence (P30305 whole entry): T1 sequence (whole entry)

| Activity [2] | Activity [3] | IC50 [4] [µM] | IC50 [3] [µM] | SMILES | Activity [1] | IC50 [1] [µM] |
| --- | --- | --- | --- | --- | --- | --- |
| inactive | inactive | – | – | C=C1CCC[C@H]2[C@](C)(Cc3cc(C(=O)OC)ccc3OCC=C(C)C)[C@@H](C)CC[C@]12C | inactive | – |
| – | – | 92 | 45.2 | C=C1CCC[C@H]2[C@](C)(CC3=C(O)C(=O)C=C(OC)C3=O)[C@@H](C)CC[C@]12C [ILIMAQUINONE] | – | 10.9 |
| inactive | inactive | – | – | C=C1CCC[C@H]2[C@](C)(Cc3cc(C(=O)OC)ccc3O)[C@@H](C)CC[C@]12C | inactive | – |
| inactive | inactive | – | – | O=c1ccn([C@H]2C[C@H](O)[C@@H](CO)O2)c(=O)[nH]1 | inactive | – |
